Measurements taken from patent US20100173833A1, “METHODS AND COMPOSITION FOR USE OF CYCLIC ANALOGUES OF HISTATIN” (priority 2007, published 2010).
Values after ≈ are worked out from the molar mass of the structure shown. Bridge positions count the residues as written; N and C are the ends. Peptide text beside a SMILES is read from it.

Columns and labels:
S. aurens (ATCC 43300) = conditions: lab strain ATCC 43300; 1 hour 37° C. in 10 mM NaCl/50 mM MOPS, pH 7.2, then YPD 24 hours 37° C.
[1] = 1 uM, 37° C., in vitro
Experimental: The cyclic analogue was incubated in human saliva at a concentration of 1 uM and at a temperature of 37° C. in vitro. At various time points from 0 to 72 hours, 1.0 ul aliquots were taken and injected directly into a Micromass Quattro Micro mass spectrometer. Data was collected for a total of 3 minutes. The data was then processed using Mass Lynx 4.0 Analysis software.

[2] = test system: Candida albicans (isolate #28); conditions: clinical isolate #28; 1 hour 37° C. in 10 mM NaCl/50 mM MOPS, pH 7.2, then YPD 24 hours 30° C.
[3] = test system: Candida albicans (isolate #5); conditions: clinical isolate #5; 1 hour 37° C. in 10 mM NaCl/50 mM MOPS, pH 7.2, then YPD 24 hours 30° C.
MRSAS. aureus (STRAIN 1) = conditions: clinical MRSA strain 1; 1 hour 37° C. in 10 mM NaCl/50 mM MOPS, pH 7.2, then YPD 24 hours 37° C.
adult rats = assay: Tolerability in adult rats, intra-venous injection; format: in vivo
Experimental: (§1) In addition, mice were able to withstand a concentration of 15 mg/kg of DB2121 when injected via an intra-peritoneal route. When injected into adult rats, a concentration of up to and including 1.5 mg/kg caused no harm when injected intra-venously.

[4] = test system: Candida tropicalis (isolate #93); conditions: clinical isolate #93; 1 hour 37° C. in 10 mM NaCl/50 mM MOPS, pH 7.2, then YPD 24 hours 30° C.
[5] = test system: Candida albicans (isolate #4); conditions: clinical isolate #4; 1 hour 37° C. in 10 mM NaCl/50 mM MOPS, pH 7.2, then YPD 24 hours 30° C.
[6] = test system: primary human foreskin epithelial cell culture; conditions: various concentrations, 0, 36 and 72 hours (FIG. 3)
Experimental: To determine range of non-toxic concentrations of DB2121, various concentration s of DB2121, 50 μM ketoconazole or DMSO as a control were separately added to primary human foreskin epithelial cell culture. At 0, 36 and 72 hours after addition, the epithelial cells were titriated off the culture plate and the viable cell number was determined. The experiment was performed in triplicate. At 72 hours, the foreskin epithelial cells exposed to the various compounds were imaged at 20× magnification using phase contrast microscopy. For cell counting, the epithelial cells were stained with trypan exclusion stain to monitor cell viability.

[7] = test system: Candida albicans (isolate #3); conditions: clinical isolate #3; 1 hour 37° C. in 10 mM NaCl/50 mM MOPS, pH 7.2, then YPD 24 hours 30° C.
Bacillus subtilis = assay: MIC, inhibition of cell growth; format: cell-based; conditions: lab strain; 1 hour 37° C. in 10 mM NaCl/50 mM MOPS, pH 7.2, then YPD 24 hours 37° C.
S. aureus (ATCC 29213) = conditions: lab strain ATCC 29213; 1 hour 37° C. in 10 mM NaCl/50 mM MOPS, pH 7.2, then YPD 24 hours 37° C.
MRSAS. aureus (STRAIN 2) = conditions: clinical MRSA strain 2; 1 hour 37° C. in 10 mM NaCl/50 mM MOPS, pH 7.2, then YPD 24 hours 37° C.
[8] = test system: Candida albicans (isolate #98); conditions: clinical isolate #98; 1 hour 37° C. in 10 mM NaCl/50 mM MOPS, pH 7.2, then YPD 24 hours 30° C.
[9] = test system: Candida albicans (SC5314); conditions: lab strain; 1 hour 37° C. in 10 mM NaCl/50 mM MOPS, pH 7.2, then YPD broth 24 hours 30° C.
[10] = test system: Primary human neonatal foreskin epithelial cells; conditions: 50 μM working (antimicrobial) concentration
Experimental: At 18 and 36 hours following addition of compound, the foreskin epithelial cells were imaged using phase contract microscopy at 20× magnification. […] The experiments was repeated three times.

mice = assay: Tolerability in mice, intra-peritoneal injection; format: in vivo
Experimental: as §1

[11] = test system: S. haemolyticus (ATCC 29970); conditions: lab strain ATCC 29970; 1 hour 37° C. in 10 mM NaCl/50 mM MOPS, pH 7.2, then YPD 24 hours 37° C.
[12] = test system: Candida albicans (isolate #99); conditions: clinical isolate #99; 1 hour 37° C. in 10 mM NaCl/50 mM MOPS, pH 7.2, then YPD 24 hours 30° C.
[13] = test system: Candida albicans (isolate #11); conditions: clinical isolate #11; 1 hour 37° C. in 10 mM NaCl/50 mM MOPS, pH 7.2, then YPD 24 hours 30° C.
S. aurens (ATCC 25923) = conditions: lab strain ATCC 25923; 1 hour 37° C. in 10 mM NaCl/50 mM MOPS, pH 7.2, then YPD 24 hours 37° C.
[14] = test system: Candida dubliniensis (isolate #10); conditions: clinical isolate #10; 1 hour 37° C. in 10 mM NaCl/50 mM MOPS, pH 7.2, then YPD 24 hours 30° C.
phosphorylated ERK 1, 2 = conditions: 50 μM, primary human foreskin epithelial cells
Experimental: Toxicological studies of DB2121 in human cells were also undertaken. Primary human neonatal foreskin epithelial cells were used to examine DB2121 toxicity, using a method as described in Min et al. 2004. […] At 18 and 36 hours following addition of compound, the foreskin epithelial cells were imaged using phase contract microscopy at 20× magnification. (E) Immediately following the image analysis, proteins were extracted, separated on SDS-PAGE gels, Western blotted, and probed for Phosphorylated and non-phosphorylated ERK 1, 2 to monitor the proliferation of the foreskin keratinocytes. The experiments was repeated three times.
The primary cells were lysed and monitored for a marker of proliferation namely phosphorylated ERK 1, 2.

[15] = test system: Candida albicans (isolate #AST97); conditions: clinical isolate AST97 (blood culture); 1 hour 37° C. in 10 mM NaCl/50 mM MOPS, pH 7.2, then YPD 24 hours 30° C.
Candida albicans = conditions: concentration of cyclic Histatin analogue, alone or in combination; 1 hour 37° C. in 20 mM Tris-Cl, pH 7.2, 20 mM NaCl, then YPD 24 hours
[16] = test system: Candida albicans (isolate #77); conditions: clinical isolate #77; 1 hour 37° C. in 10 mM NaCl/50 mM MOPS, pH 7.2, then YPD 24 hours 30° C.

For `N=C(N)NCCC[C@H](NC(=O)[C@H](Cc1c[nH]cn1)NC(=O)[C@@H]1CSSC[C@H](NC(=O)[C@H](Cc2c[nH]cn2)NC(=O)[C@H](Cc2c[nH]cn2)NC(=O)[C@@H](N)CCCNC(=N)N)C(=O)N[C@@H](Cc2ccc(O)cc2)C(=O)N[C@@H](CCCCN)C(=O)N[C@@H](CCCNC(=N)N)C(=O)N[C@@H](CCCCN)C(=O)N[C@@H](Cc2ccccc2)C(=O)N[C@@H](Cc2c[nH]cn2)C(=O)N[C@@H](CCC(=O)O)C(=O)N[C@@H](CCCCN)C(=O)N[C@@H](Cc2c[nH]cn2)C(=O)N[C@@H](Cc2c[nH]cn2)C(=O)N1)C(=O)NCC(=O)N[C@@H](Cc1ccc(O)cc1)C(=O)O` [DB2121] (H-RHHCYKRKFHEKHHCHRGY-OH; disulfide 4-15), the MIC (S. aurens (ATCC 43300)) was 5.5 µM (≈ 14.1 µg/mL), the “stable in human saliva” value [1] was “at least 72 hours” and the MIC [2] was 4.5 µM (≈ 11.5 µg/mL). For the same molecule, the MIC [3] was 4.5 µM (≈ 11.5 µg/mL), the MIC (MRSAS. aureus (STRAIN 1)) was 11.5 µM (≈ 29.4 µg/mL) and the “concentration that caused no harm” value (adult rats) was ≤ 1.5 mg/kg. The MIC [4] was 4.5 µM (≈ 11.5 µg/mL), the MIC [5] was 4.5 µM (≈ 11.5 µg/mL) and the “toxicity in primary cultured cells (viable cell number)” value [6] was “minimal toxicity”. It also gave an MIC [7] of 8.0 µM (≈ 20.5 µg/mL), an MIC (Bacillus subtilis) of 23.9 µM (≈ 61.1 µg/mL) and an MIC (S. aureus (ATCC 29213)) of 12.5 µM (≈ 32 µg/mL). For the same molecule, the MIC (MRSAS. aureus (STRAIN 2)) was 11.5 µM (≈ 29.4 µg/mL), the MIC [8] was 4.5 µM (≈ 11.5 µg/mL) and the MIC [9] was 4.5 µM (≈ 11.5 µg/mL). The “toxicity to human primary cells” value [10] was “non-toxic”, the concentration withstood (mice) was 15 mg/kg and the MIC [11] was 4.5 µM (≈ 11.5 µg/mL). It also gave an MIC [12] of 4.5 µM (≈ 11.5 µg/mL), an MIC [13] of 6.5 µM (≈ 16.6 µg/mL) and an MIC (S. aurens (ATCC 25923)) of 4.5 µM (≈ 11.5 µg/mL). For the same molecule, the MIC [14] was 4.5 µM (≈ 11.5 µg/mL), the “ERK 1, 2 activation compared to control” value (phosphorylated ERK 1, 2) was “not suppressed” and the MIC [15] was 7.8 µM (≈ 20 µg/mL). For the same molecule, the “MIC (DB2121)” value (Candida albicans) was 11 µM and the MIC [16] was 4.5 µM (≈ 11.5 µg/mL).
